Tests used:
[1] = molecular target: A2A-adenosine receptor (Homo sapiens, UniProt P29274); conditions: result in words; cited from earlier work
[2] = stability of the polymorphs (relative humidity stress, moisture sorption/desorption, thermal analyses); assay type: physicochemical; conditions: for stability relative to the other polymorphs: ambient temperatures; for stability relative to the other polymorphs / stability under relative humidity stress conditions: monohydrate; for stability under relative humidity stress conditions: up to melting point
Procedure: Thermogravimetric (TG) analyses were carried out on a TA Instruments 2050 or 2950 thermogravimetric analyzer. The calibration standards were nickel and Alumel™. Samples were placed in an aluminum sample pan, inserted into the TG furnace, and accurately weighed. The samples were heated in nitrogen at a rate of 10° C./min to either 300 or 350° C. Unless stated otherwise, sample weights were equilibrated at 25° C. in the TGA furnace prior to analysis.
Differential scanning calorimetry (DSC) analyses were carried out on a TA Instruments differential scanning calorimeter 2920. Accurately weighed samples were placed in either crimped pans or hermetically sealed pans that contained a pinhole to allow for pressure release. Each sample was heated under nitrogen at a rate of 10° C./min to either 300 or 350° C. Indium metal was used as the calibration standard. Temperatures were reported at the transition maxima.
Moisture sorption/desorption data were collected on a VTI SGA-100 Vapor Sorption Analyzer. Sorption and desorption data were collected over a range of 5% to 95% relative humidity […] at 10% RH intervals under a nitrogen purge. Sodium chloride (NaCl) and polyvinylpyrrolidone (PVP) were used as the calibration standards. Equilibrium criteria used for analysis were less than 0.0100% weight change in 5 minutes, with a maximum equilibration time of 180 minutes if the weight criterion was not met. The plotted data have not been corrected for the initial moisture content.

[3] = cited from earlier work

A2A-adenosine receptor, sequence (P29274 whole entry): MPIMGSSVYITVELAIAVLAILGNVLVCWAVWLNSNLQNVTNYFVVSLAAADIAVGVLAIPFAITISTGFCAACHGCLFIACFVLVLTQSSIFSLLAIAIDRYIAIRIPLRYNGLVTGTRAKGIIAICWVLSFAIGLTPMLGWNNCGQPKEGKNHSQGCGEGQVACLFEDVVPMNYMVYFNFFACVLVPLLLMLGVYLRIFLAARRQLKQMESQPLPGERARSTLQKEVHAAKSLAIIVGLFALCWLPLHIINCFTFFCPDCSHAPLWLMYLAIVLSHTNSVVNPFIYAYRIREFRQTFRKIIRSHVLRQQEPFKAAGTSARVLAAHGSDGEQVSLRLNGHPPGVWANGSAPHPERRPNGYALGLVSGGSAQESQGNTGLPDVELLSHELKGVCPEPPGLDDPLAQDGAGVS

## CNC(=O)c1cnn(-c2nc(N)c3ncn([C@@H]4O[C@H](CO)[C@@H](O)[C@H]4O)c3n2)c1 [(1-{9-[(4S,2R,3R,5R)-3,4-dihydroxy-5-(hydroxymethyl)oxolan-2-yl]-6-aminopurin-2-yl}pyrazol-4-yl)-N-methylcarboxamide]
[1]
  A2A-adenosine receptor agonist selectivity: highly selective A2A-adenosine receptor agonist

## CNC(=O)c1cnn(-c2nc(N)c3ncn([C@@H]4O[C@H](CO)[C@@H](O)[C@H]4O)c3n2)c1.O [Form A, (1-{9-[(4S,2R,3R,5R)-3,4-dihydroxy-5-(hydroxymethyl)oxolan-2-yl]-6-aminopurin-2-yl}pyrazol-4-yl)-N-methylcarboxamide monohydrate]
[2]; listed as monohydrate
  stability relative to the other polymorphs: the most stable
  stability under relative humidity stress conditions: stable under relative humidity stress conditions, up to its melting point
[2]
  stability relative to the other polymorphs: the most stable of the various polymorphs at ambient temperatures
  stability under relative humidity stress conditions: stable under relative humidity stress conditions up to its melting point

## CNC(=O)c1cnn(-c2nc(N)c3ncn([C@@H]4O[C@H](CO)[C@@H](O)[C@H]4O)c3n2)c1 [Amorphous Material, (1-{9-[(4S,2R,3R,5R)-3,4-dihydroxy-5-(hydroxymethyl)oxolan-2-yl]-6-aminopurin-2-yl}pyrazol-4-yl)-N-methylcarboxamide]
[2]; atmospheric moisture
  stability in the presence of atmospheric moisture: unstable in the presence of atmospheric moisture, forming variable hydrates

## Nc1ncnc2c1ncn2[C@@H]1O[C@H](CO)[C@@H](O)[C@H]1O [Adenosine]
[3]
  half life in humans: less than 10 seconds

## CNC(=O)c1cnn(-c2nc(N)c3ncn([C@@H]4O[C@H](CO)[C@@H](O)[C@H]4O)c3n2)c1 [Polymorph C, (1-{9-[(4S,2R,3R,5R)-3,4-dihydroxy-5-(hydroxymethyl)oxolan-2-yl]-6-aminopurin-2-yl}pyrazol-4-yl)-N-methylcarboxamide]
[2]; elevated temperatures
  behaviour at elevated temperatures: desolvates to an unstable form
